What was measured:
Test in all cases: Bliss excess, mean over the matrix (fraction); higher = more synergy
[1] = system: HCC1937 (Breast Carcinoma)
Procedure, shortened: (§1)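 Bliss excess equals the observed combination effect minus the expected value EA + EB − EA·EB, where EA and EB are the effects of each agent alone. Combination Emax is the second-highest inhibition within the matrix. Inhibition was scaled from CellTiter-Glo 2.0 luminescence, with 0 set by vehicle wells and 1 by blank wells, after 72 hours of two-drug dosing of cells plated in 1536-well plates.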

[2] = system: COLO-668 (Small Cell Lung Carcinoma)
Procedure, shortened: as §1

[3] = system: A4-Fuk (B-Lymphoblastic Leukemia)
Procedure, shortened: as §1

[4] = system: ALL-SIL (T-Lymphoblastic Leukemia)
Procedure, shortened: as §1

[5] = system: NCI-H1355 (Lung Adenocarcinoma)
Procedure, shortened: as §1

[6] = system: DU-145 (Prostate Carcinoma)
Procedure, shortened: as §1

[7] = system: OE33 (Esophageal Adenocarcinoma)
Procedure, shortened: as §1

[8] = system: MOLT-4 (T-Lymphoblastic Leukemia)
Procedure, shortened: as §1

[9] = system: NCI-H522 (Lung Adenocarcinoma)
Procedure, shortened: as §1

[10] = system: SNU-387 (Hepatocellular Carcinoma)
Procedure, shortened: as §1

[11] = system: NCI-H1838 (Lung Adenocarcinoma)
Procedure, shortened: as §1

[12] = system: NCI-H1092 (Small Cell Lung Carcinoma)
Procedure, shortened: as §1

[13] = system: KMRC-1 (Kidney Carcinoma)
Procedure, shortened: as §1

[14] = system: SW872 (Other Solid Carcinomas)
Procedure, shortened: as §1

[15] = system: ME-180 (Cervical Carcinoma)
Procedure, shortened: as §1

[16] = system: EW-1 (Ewing's Sarcoma)
Procedure, shortened: as §1

[17] = system: Ca-Ski (Cervical Carcinoma)
Procedure, shortened: as §1

[18] = system: LC-1-sq (Squamous Cell Lung Carcinoma)
Procedure, shortened: as §1

[19] = system: HCC1500 (Breast Carcinoma)
Procedure, shortened: as §1

[20] = system: MV-4-11 (Acute Myeloid Leukemia)
Procedure, shortened: as §1

| SMILES | Bliss excess [1] | Bliss excess [2] | Bliss excess [3] | Bliss excess [4] | Bliss excess [5] | Bliss excess [6] | Bliss excess [7] | Bliss excess [8] | Bliss excess [9] | Bliss excess [10] | Bliss excess [11] | Bliss excess [12] | Bliss excess [13] | Bliss excess [14] | Bliss excess [15] | Bliss excess [16] | Bliss excess [17] | Bliss excess [18] | Bliss excess [19] | Bliss excess [20] |
| --- | --- | --- | --- | --- | --- | --- | --- | --- | --- | --- | --- | --- | --- | --- | --- | --- | --- | --- | --- | --- |
| CN(C)CCCOc1ccc(-c2ccc3ncc4c(c3c2)n(C2CCOCC2)c(=O)n4C)cn1 [AZD0156] + O=C(c1cc(Cc2n[nH]c(=O)c3ccccc23)ccc1F)N1CCN(C(=O)C2CC2)CC1 [Olaparib] (first compound max 3 µM, partner max 3 µM) | 0.0316 | -0.0077 | 0.0383 | 0.0281 | 0.0176 | -0.0462 | 0.0228 | 0.123 | -0.0273 | 0.0072 | -0.0093 | 0.0028 | -0.0316 | -0.0318 | 0.0444 | 0.231 | 0.063 | -0.0374 | 0.0055 | – |
| C=CCn1c(=O)c2cnc(Nc3ccc(N4CCN(C)CC4)cc3)nc2n1-c1cccc(C(C)(C)O)n1 [AZD1775] + C1CN(CCC1(C(=O)N[C@@H](CCO)C2=CC=C(C=C2)Cl)N)C3=NC=NC4=C3C=CN4 [Capivasertib] (first compound max 3 µM, partner max 3 µM) | -0.0385 | -0.0726 | -0.0977 | -0.0129 | 0.0046 | -0.055 | -0.0326 | 0.0536 | -0.0028 | -0.0435 | -0.0978 | -0.0497 | -0.0762 | -0.106 | 0.0063 | 0.0379 | 0.0161 | -0.128 | -0.0462 | – |
| CCc1c2c(nc3ccc(O)cc13)-c1cc3c(c(=O)n1C2)COC(=O)[C@]3(O)CC [SN-38] + O=C(c1cc(Cc2n[nH]c(=O)c3ccccc23)ccc1F)N1CCN(C(=O)C2CC2)CC1 [Olaparib] (first compound max 0.3 µM, 7x7, partner max 10 µM) | – | 0.0738 | 0.0164 | 0.0795 | 0.0271 | 0.0282 | 0.0383 | 0.0881 | 0.0909 | -0.0372 | – | -0.0076 | 0.0508 | 0.0634 | 0.0915 | 0.0642 | 0.0458 | 0.0716 | 0.051 | 0.0486 |
| CS(=O)(=O)CCNCc1ccc(-c2ccc3ncnc(Nc4ccc(OCc5cccc(F)c5)c(Cl)c4)c3c2)o1 [Lapatinib] + NC1(c2ccc(-c3nc4ccn5c(=O)[nH]nc5c4cc3-c3ccccc3)cc2)CCC1 [MK-2206] (first compound max 10 µM, 7x7, partner max 10 µM) | -0.0343 | -0.0393 | 0.0825 | – | 0.0319 | -0.0235 | -0.0133 | 0.0866 | -0.0313 | 0.0033 | -0.0422 | 0.0182 | 0.0098 | -0.0066 | 0.0315 | – | 0.0103 | – | 0.0415 | 0.0371 |
| Cc1c2c(nn1C)CSCc1cc(n(C)n1)CSc1cc(c3ccccc3c1)OCCCc1c(C(=O)O)n(C)c3c-2c(Cl)ccc13 [AZD5991] + CCN(CCO)CCCOc1ccc2c(Nc3cc(CC(=O)Nc4cccc(F)c4)[nH]n3)ncnc2c1 [AZD2811] (first compound max 1 µM, 7x7, partner max 1 µM) | -0.0028 | 0.0172 | 0.0579 | -0.0282 | -0.0466 | -0.0282 | -0.002 | -0.0126 | 0.111 | -0.0333 | 0.0109 | 0.0479 | 0.0096 | 0.0237 | – | 0.0979 | 0.0869 | 0.0425 | 0.0466 | -0.0046 |
| CN(CCO)CC[C@H](CSc1ccccc1)Nc1ccc(S(=O)(=O)NC(=O)c2ccc(N3CCC([C@@H](O)c4ccccc4-c4ccc(Cl)cc4)CC3)cc2)cc1S(=O)(=O)C(F)(F)F [AZD4320] + C=CCn1c(=O)c2cnc(Nc3ccc(N4CCN(C)CC4)cc3)nc2n1-c1cccc(C(C)(C)O)n1 [AZD1775] (first compound max 1 µM, partner max 1 µM) | 0.0878 | 0.0801 | -0.0107 | 0.0693 | 0.0162 | -0.0308 | -0.0093 | 0.0674 | -0.0299 | 0.0102 | -0.0311 | 0.0527 | 0.0036 | 0.0035 | -0.0304 | 0.0581 | 0.0198 | 0.0279 | 0.11 | – |
| O=C(c1cc(Cc2n[nH]c(=O)c3ccccc23)ccc1F)N1CCN(C(=O)C2CC2)CC1 [Olaparib] + Cc1c2c(nn1C)CSCc1cc(n(C)n1)CSc1cc(c3ccccc3c1)OCCCc1c(C(=O)O)n(C)c3c-2c(Cl)ccc13 [AZD5991] (first compound max 10 µM, 7x7, partner max 1 µM) | – | -0.0495 | -0.0387 | – | -0.0595 | -0.0348 | -0.0543 | 0.0336 | -0.0062 | -0.0935 | – | – | -0.0784 | -0.0377 | -0.0363 | – | -0.0275 | – | – | 0.0735 |
